Laboratory results: patent US4243668A, “Octahydro-1H-benzo[4,5]furo[3,2-e]-isoquinoline analgesic and narcotic antagonistic compounds” (priority 1979, dated 1981)
Read-outs that look alike come from different tables or passages of the source.

Legend:
[1] = tested on: induction of Straub tail in mice by a highly addicting agonist such as morphine; assay: anti-Straub tail test, antagonism of morphine-induced Straub tail (narcotic antagonism); assay type: in vivo, Female CF1 S mice; settings: for ED50: Mus musculus; for ED50 / EFFECT ED50 subcutaneous(s.c.) Anti-Straub Tail: mice, vs morphine sulfate 30 mg/kg i.p.
Straub tail = Straub tail reaction (oral), narcotic agonist effect; assay type: in vivo, CF1 S female mice; settings: Mus musculus, mice
Description: Narcotic analgesics produce in mice an erection and arching of the tail (90° or more) which is referable to spinal cord stimulation. This Straub tail reaction is not produced by other analgesics, including the narcotic antagonists.
The method used was modified from Shemano, I., and Wendel, H., Tox. Appl. Pharm., 6, 334-9 (1964). CF1 S female mice (18-21 g), 10-20 mice per dose, were intubated with log scaled doses of analgesic in 1% aqueous methylcellulose. A positive Straub tail response was recorded if a tail was erected 90° or more for 5 seconds at any time within 24 minutes after dosing. A quantal Straub tail ED50 was calculated by the moving average method [Thompson, W. R., Bact. Rev., 11, 115-145 (1947)].

[2] = tested on: pain induced by phenylquinone; assay: phenylquinone writhing test (oral anti-PQW), analgesic activity; assay type: in vivo, female white mice; settings: Mus musculus, po, mice, oral, phenylquinone writhing, ED50; read-out: EFFECT ED50 Oral Anti-PQW
Description: A standard procedure for detecting and comparing the analgesic activity of compounds in this series for which there is good correlation with human efficacy is the standard phenylquinone writhing test modified from Siegmund, et al., Proc. Soc. Exp. Biol. Med., 95, 729 (1957). A test compound suspended in 1% methocel® was given orally to fasted (17-21 hours) female white mice, 5-20 animals per double blind test. Aqueous (0.01% phenyl-p-benzoquinone) phenylquinone was injected intraperitoneally at 24 minutes later using 0.20 ml per mouse. […] The effective analgesic dose for 50% of the mice (ED50) was calculated by the moving average method of Thompson, W. R., Bact. Rev., 11, 115-145 (1947).

[3] = sc, s.c., read-out: EFFECT ED50 subcutaneous(s.c.) Anti-Straub Tail
[4] = ip, i.p., read-out: EFFECT ED50 Intraperitoneal(i.p.) Anti-Straub Tail

Row | Structure (SMILES) | ED50 [1, 3] | ED50 (Straub tail) | ED50 [2] | narcotic antagonism, in words ([1]; mouse anti-Straub tail test) | EFFECT ED50 subcutaneous(s.c.) Anti-Straub Tail ([1]; s.c., listed as 3 (-)isomer) | ED50 [1, 4] | EFFECT ED50 subcutaneous(s.c.) Anti-Straub Tail ([1]; s.c., listed as 3 (+)isomer)
1 | COc1cccc2c1OC1CCCC3CN(Cc4cccs4)CCC231 (stereo not shown) [Example 41] | > 27 mg/kg | > 135 mg/kg | 48 mg/kg | – | – | – | –
2 | CC(C)CCN1CC[C@]23c4cccc(O)c4O[C@H]2CCC[C@H]3C1 (relative stereo) [Example 19, 3-(3'-Methylbutyl)-2,3,4,4aα,5,6,7,7aα-octahydro-1H-benzo[4,5]furo[3,2-e]isoquinolin-9-ol] | 0.64 mg/kg | > 135 mg/kg | 33 mg/kg | – | – | – | –
3 | CC(C)CN1CCC23c4cccc(O)c4OC2CCCC3C1 (stereo not shown) [Example 32] | 0.03 mg/kg | > 135 mg/kg | 63 mg/kg | – | – | – | –
4 | CCCCCCCCN1CCC23c4cccc(OC)c4OC2CCCC3C1 (stereo not shown) [Example 29] | > 27 mg/kg | – | 7.2 mg/kg | – | – | – | –
5 | COc1cccc2c1OC1CCCC3CN(CCc4ccc(C)cc4)CCC231 (stereo not shown) [Example 35] | 56 mg/kg | 52 mg/kg | 1.7 mg/kg | – | – | – | –
6 | CCCCN1CC[C@]23c4cccc(OC)c4O[C@H]2CCC[C@H]3C1 (relative stereo) [Example 23] | 0.82 mg/kg | > 135 mg/kg | 33 mg/kg | – | – | – | –
7 | CC(=O)Oc1cccc2c1O[C@H]1CCC[C@H]3CN(CC4CC4)CC[C@@]231 (relative stereo) [Example 9, 3-Cyclopropylmethyl-9-acetoxy-2,3,4,4aα,5,6,7,7aα-octahydro-1H-benzo[4,5]furo[3,2-e]isoquinoline] | 0.005 mg/kg | > 135 mg/kg | 0.75 mg/kg | – | – | – | –
8 | CN1CC[C@]23c4cccc(O)c4O[C@H]2CCC[C@H]3C1 (relative stereo) [Example 3, 3-Methyl-2,3,4,4aα,5,6,7,7aα-octahydro-1H-benzo[4,5]furo[3,2-e]isoquinolin-9-ol] | 0.27 mg/kg | > 135 mg/kg | 3.5 mg/kg | – | – | – | –
9 | CCCCCN1CCC23c4cccc(OC)c4OC2CCCC3C1 (stereo not shown) [Example 25] | > 27 mg/kg | 57 mg/kg | 6.2 mg/kg | – | – | – | –
10 | Oc1cccc2c1O[C@H]1CCC[C@H]3CNCC[C@@]231 (relative stereo) [Example 13, 2,3,4,4aα,5,6,7,7aα-octahydro-1H-benzo[4,5]furo[3,2-e]isoquinol in-9-ol] | > 27 mg/kg | > 135 mg/kg | 15 mg/kg | – | – | – | –
11 | CCCN1CC[C@]23c4cccc(OC)c4O[C@H]2CCC[C@H]3C1 (relative stereo) [Example 21] | 0.08 mg/kg | > 135 mg/kg | 78 mg/kg | – | – | – | –
12 | COc1cccc2c1OC1CCCC3CN(Cc4ccco4)CCC231 (stereo not shown) [Example 37] | 12 mg/kg | > 135 mg/kg | 84 mg/kg | – | – | – | –
13 | COc1cccc2c1O[C@H]1CCC[C@H]3CN(Cc4ccccc4)CC[C@@]231 (relative stereo) [Example 10, 3-Benzyl-9-methoxy-2,3,4,4aα,5,6,7,7aα-octahydro-1H-benzo[4,5]furo[3,2-e]isoquinoline] | 48 mg/kg | > 81 mg/kg | 48 mg/kg | pure narcotic antagonists | – | – | –
14 | Oc1cccc2c1OC1CCCC3CN(CC4CCCO4)CCC231 (stereo not shown) [Example 40] | 0.19 mg/kg | – | 11.8 mg/kg | – | – | – | –
15 | CN1CCC23c4cccc(O)c4OC2CCCC3C1 (single isomer, unassigned; isomer 3) [Example 3 (-)isomer, 3-Methyl-2,3,4,4aα,5,6,7,7aα-octahydro-1H-benzo[4,5]furo[3,2-e]isoquinolin-9-ol] | – | > 135 mg/kg | – | – | 0.14 | – | –
16 | CCCCCN1CCC23c4cccc(O)c4OC2CCCC3C1 (stereo not shown) [Example 26] | > 27 mg/kg | 37 mg/kg | 5.3 mg/kg | – | – | – | –
17 | CCN1CC[C@]23c4cccc(O)c4O[C@H]2CCC[C@H]3C1 (relative stereo) [Example 14b, 3-Ethyl-2,3,4,4aα,5,6,7,7aα-octahydro-1H-benzo[4,5]furo[3,2-e]isoquinolin-9-ol] | 0.028 mg/kg | > 135 mg/kg | 135 mg/kg | – | – | – | –
18 | CCCCCCN1CCC23c4cccc(OC)c4OC2CCCC3C1 (stereo not shown) [Example 27] | > 27 mg/kg | 25 mg/kg | 7 mg/kg | – | – | – | –
19 | Oc1cccc2c1O[C@H]1CCC[C@H]3CN(CC4CCC4)CC[C@@]231 (relative stereo) [Example 7, 3-Cyclobutylmethyl-2,3,4,4aα,5,6,7,7aα-octahydro-1H-benzo[4,5]furo[3,2-e]isoquinoline-9-ol] | – | > 81 mg/kg | 81 mg/kg | – | – | 0.64 mg/kg | –

Row | Structure (SMILES) | ED50 [1, 3] | ED50 (Straub tail) | ED50 [2] | narcotic antagonism, in words ([1]; mouse anti-Straub tail test) | EFFECT ED50 subcutaneous(s.c.) Anti-Straub Tail ([1]; s.c., listed as 3 (-)isomer) | ED50 [1, 4] | EFFECT ED50 subcutaneous(s.c.) Anti-Straub Tail ([1]; s.c., listed as 3 (+)isomer)
20 | Oc1cccc2c1O[C@H]1CCC[C@H]3CN(Cc4ccccc4)CC[C@@]231 (relative stereo) [Example 11, 3-Benzyl-2,3,4,4aα,5,6,7,7aα-octahydro-1H-benzo[4,5]furo[3,2-e]isoquinoline-9-ol] | 1.2 mg/kg | > 81 mg/kg | 29 mg/kg | – | – | – | –
21 | Oc1cccc2c1OC1CCCC3CN(CC4CCCCC4)CCC231 (stereo not shown) [Example 34] | > 27 mg/kg | > 135 mg/kg | 23 mg/kg | – | – | – | –
22 | COc1cccc2c1OC1CCCC3CN(CC(C)C)CCC231 (stereo not shown) [Example 31] | 0.24 mg/kg | > 135 mg/kg | 94 mg/kg | – | – | – | –
23 | Oc1cccc2c1OC1CCCC3CN(Cc4ccco4)CCC231 (stereo not shown) [Example 38] | 7.2 mg/kg | > 135 mg/kg | 108 mg/kg | – | – | – | –
24 | CN1CC[C@]23c4ccccc4O[C@H]2CCC[C@H]3C1 (relative stereo) [Example 1, 3-Methyl-2,3,4,4aα,5,6,7,7aα,octahydro-1H-benzo[4,5]furo[3,2-e]isoquinoline] | – | > 81 mg/kg | 14 mg/kg | – | – | – | –
25 | Oc1cccc2c1OC1CCCC3CN(Cc4cccs4)CCC231 (stereo not shown) [Example 42] | – | > 135 mg/kg | 108 mg/kg | – | – | – | –
26 | COc1cccc2c1O[C@H]1CCC[C@H]3CN(C)CC[C@@]231 (relative stereo) [Example 2, 9-Methoxy-3-methyl-2,3,4,4aα-5,6,7,7aα-octahydro-1H-benzo[4,5]furo[3,2-e]isoquinoline] | – | > 135 mg/kg | 9.8 mg/kg | – | – | 10.1 mg/kg | –
27 | C=CCN1CC[C@]23c4cccc(OC)c4O[C@H]2CCC[C@H]3C1 (relative stereo) [Example 15, 3-Allyl-9-methoxy-2,3,4,4aα,5,6,7,7aα-octahydro-1H-benzo[4,5]furo[3,2-e]isoquinoline] | 0.3 mg/kg | > 135 mg/kg | 62 mg/kg | – | – | – | –
28 | CN1CCC23c4cccc(O)c4OC2CCCC3C1 (single isomer, unassigned; isomer 3) [Example 3 (+)isomer, 3-Methyl-2,3,4,4aα,5,6,7,7aα-octahydro-1H-benzo[4,5]furo[3,2-e]isoquinolin-9-ol] | – | – | – | – | – | – | 3.3
29 | COc1cccc2c1O[C@H]1CCC[C@H]3CNCC[C@@]231 (relative stereo) [Example 12, 9-Methoxy-2,3,4,4aα,5,6,7,7aα-octahydro-1H-benzo[4,5]furo[3,2-e]isoquinoline] | – | > 81 mg/kg | 47 mg/kg | – | – | – | –
30 | COc1cccc2c1O[C@H]1CCC[C@H]3CN(CC=C(C)C)CC[C@@]231 (relative stereo) [Example 17, 3-(3'-Methyl-2'-butenyl)-9-methoxy-2,3,4,4aα,5,6,7,7aα-octahydro-1H-benzo[4,5]furo[3,2-e]isoquinoline] | 7.8 mg/kg | > 135 mg/kg | 18.7 mg/kg | – | – | – | –
31 | CCCCCCN1CCC23c4cccc(O)c4OC2CCCC3C1 (stereo not shown) [Example 28] | – | 26 mg/kg | 2.9 mg/kg | – | – | – | –
32 | CCCCCCCCN1CCC23c4cccc(O)c4OC2CCCC3C1 (stereo not shown) [Example 30] | – | 54 mg/kg | 4.2 mg/kg | – | – | – | –
33 | CC(C)=CCN1CC[C@]23c4cccc(O)c4O[C@H]2CCC[C@H]3C1 (relative stereo) [Example 18, 3-(3'-methyl-2'-butenyl)-2,3,4,4aα,5,6,7,7aα-octahydro-1H-benzo[4,5]furo[3,2-e]isoquinolin-9-ol] | > 27 mg/kg | 32 mg/kg | 10.8 mg/kg | – | – | – | –
34 | COc1cccc2c1O[C@H]1CCC[C@H]3CN(CC#N)CC[C@@]231 (relative stereo) [Example 20, 9-Methoxy-2,3,4,4aα,5,6,7,7aα-octahydro-1H-benzo[4,5]furo[3,2-e]isoquinoline-3-acetonitrile] | > 27 mg/kg | > 135 mg/kg | 26 mg/kg | – | – | – | –
35 | CCCN1CC[C@]23c4cccc(O)c4O[C@H]2CCC[C@H]3C1 (relative stereo) [Example 22] | 0.008 mg/kg | > 135 mg/kg | 112 mg/kg | – | – | – | –
36 | CCN1CC[C@]23c4cccc(OC)c4O[C@H]2CCC[C@H]3C1 (relative stereo) [Example 14a, 3-ethyl-9-methoxy-2,3,4,4aα,5,6,7,7aα-octahydro-1H-benzo[4,5]furo[3,2-e] isoquinoline] | 0.71 mg/kg | > 135 mg/kg | 63 mg/kg | – | – | – | –
37 | COc1cccc2c1OC1CCCC3CN(CC4CCCO4)CCC231 (stereo not shown) [Example 39] | 4.7 mg/kg | – | 16.7 mg/kg | – | – | – | –
38 | COc1cccc2c1OC1CCCC3CN(CC4CCCCC4)CCC231 (stereo not shown) [Example 33] | – | > 135 mg/kg | 135 mg/kg | – | – | – | –
